ChEMBL document CHEMBL1201862, “PubChem BioAssay data set” (2004)
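Where inhibition never reached the appropriate level, the endpoint shown equals the highest concentration tested. Otherwise, values were interpolated linearly from a five-concentration, 48-hour dose response in 96-well plates. Abbreviation: GI50, concentration required for 50% inhibition of growth.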 Activity calls are given as the source filed them. Rule as the data show it: active = GI50 up to about 1.1 µM and inactive = higher.

Key:
Assay in all cases: NCI tumour cell line growth inhibition, 48 h
786-0 = system: 786-0
ACHN = system: ACHN
CCRF-CEM = system: CCRF-CEM
HCT-116 = system: HCT-116
HL-60 = system: HL-60
HOP-92 = system: HOP-92
IGROV-1 = system: IGROV-1
K562 = system: K562
M14 = system: M14
MOLT-4 = system: MOLT-4
Malme-3M = system: Malme-3M
NCI-H23 = system: NCI-H23
SF-295 = system: SF-295
SNB-75 = system: SNB-75
UACC-62 = system: UACC-62

Measured: GI50

Cc1ccc(NC(=O)CC(=O)n2nc(-c3ccccc3)c(/N=N\c3ccccc3[N+](=O)[O-])c2-c2ccccc2)cc1
inactive: 786-0 28.4 µM | ACHN 89.3 µM | CCRF-CEM > 100 µM | HCT-116 70.3 µM | HL-60 86.5 µM | HOP-92 28.2 µM | IGROV-1 > 100 µM | K562 > 100 µM | M14 > 100 µM | MOLT-4 > 100 µM | Malme-3M 86.1 µM | NCI-H23 > 100 µM | SF-295 29 µM | SNB-75 69.3 µM | UACC-62 > 100 µM

CS(=O)(=O)N(CCC#N)c1ccc(C=O)cc1
inactive: 786-0 > 100 µM | ACHN > 100 µM | HCT-116 > 100 µM | HL-60 > 100 µM | IGROV-1 > 100 µM | K562 > 100 µM | M14 > 100 µM | MOLT-4 92.7 µM | Malme-3M > 100 µM | SF-295 > 100 µM | SNB-75 > 100 µM | UACC-62 > 100 µM

Cc1ccc2nc3cc(C)c(=O)cc-3sc2c1
inactive: 786-0 > 100 µM | ACHN 57.7 µM | CCRF-CEM 8.95 µM | HCT-116 > 100 µM | HL-60 3.11 µM | HOP-92 > 100 µM | IGROV-1 > 100 µM | K562 13.6 µM | M14 > 100 µM | MOLT-4 11.8 µM | Malme-3M > 100 µM | NCI-H23 57.7 µM | SF-295 94.2 µM | SNB-75 18.7 µM | UACC-62 28.7 µM

COc1ccc(/C=C2\CCCC(C(NO)c3ccc(OC)cc3)C2=NO)cc1 (stereo unspecified)
inactive: 786-0 29.2 µM | ACHN 41.6 µM | CCRF-CEM 33.9 µM | HCT-116 35.8 µM | HL-60 16.2 µM | IGROV-1 33.9 µM | K562 35.4 µM | M14 39.7 µM | MOLT-4 23.1 µM | Malme-3M 34.1 µM | NCI-H23 38.6 µM | SF-295 55.6 µM | SNB-75 26.3 µM | UACC-62 53 µM

Cc1nc(C(N)=O)c(N)n1CCN1CCN(C(=O)CCCCCCCCCCNC2NC=Nc3[nH]cnc32)CC1 (stereo unspecified)
inactive: 786-0 > 100 µM | ACHN 29.4 µM | CCRF-CEM 13.8 µM | HCT-116 43.4 µM | HL-60 15.2 µM | HOP-92 16.3 µM | IGROV-1 52.6 µM | K562 13.2 µM | M14 25.7 µM | MOLT-4 11.6 µM | Malme-3M 31.2 µM | NCI-H23 10.1 µM | SF-295 41.1 µM | UACC-62 29.8 µM

O=C(/C=C/c1c(O)ccc2ccccc12)c1ccc2ccccc2c1
inactive: 786-0 > 100 µM | ACHN > 100 µM | CCRF-CEM > 100 µM | HCT-116 > 100 µM | HL-60 > 100 µM | HOP-92 > 100 µM | IGROV-1 > 100 µM | K562 > 100 µM | MOLT-4 > 100 µM | Malme-3M > 100 µM | NCI-H23 > 100 µM | SF-295 > 100 µM | SNB-75 > 100 µM | UACC-62 59.8 µM

COc1c(NC(C)=O)cc(C)cc1NC(C)=O
inactive: 786-0 > 100 µM | ACHN > 100 µM | CCRF-CEM > 100 µM | HCT-116 > 100 µM | HL-60 > 100 µM | HOP-92 > 100 µM | K562 > 100 µM | M14 > 100 µM | MOLT-4 > 100 µM | SF-295 > 100 µM | SNB-75 > 100 µM | UACC-62 > 100 µM

CC(=O)NC(CCCNC(=O)OCc1ccccc1)C(=O)O (stereo unspecified)
inactive: 786-0 > 100 µM | ACHN > 100 µM | CCRF-CEM > 100 µM | HCT-116 > 100 µM | HOP-92 > 100 µM | IGROV-1 > 100 µM | K562 > 100 µM | M14 > 100 µM | MOLT-4 > 100 µM | Malme-3M > 100 µM | NCI-H23 > 100 µM | SF-295 > 100 µM | SNB-75 68.1 µM | UACC-62 > 100 µM

CC1(O)CCn2c(=O)c3cc4ccccc4cc3c(=O)n2C1O (stereo unspecified)
inactive: 786-0 > 100 µM | ACHN > 100 µM | CCRF-CEM > 100 µM | HCT-116 > 100 µM | HL-60 > 100 µM | HOP-92 79.3 µM | IGROV-1 > 100 µM | K562 > 100 µM | MOLT-4 > 100 µM | Malme-3M > 100 µM | NCI-H23 > 100 µM | SF-295 > 100 µM | UACC-62 > 100 µM

Cc1c(N2CCN(C)CC2)nc2ccc(Cl)cc2c1-c1ccccc1
inactive: 786-0 14.4 µM | ACHN 22 µM | CCRF-CEM 17.5 µM | HCT-116 17.8 µM | HL-60 12.7 µM | K562 14.5 µM | M14 18.5 µM | MOLT-4 > 10 µM | Malme-3M 16.9 µM | NCI-H23 23.1 µM | SF-295 17.4 µM | SNB-75 16.7 µM | UACC-62 15.7 µM
